From the NIST ThermoML archive (doi:10.1021/je301132p)

Assay: mn = molality of the nth substance listed, in mol/kg
Conditions: Liquid, Vibrating tube method

[Cl-].[Cl-].[Sr+2] [strontium chloride] + O
mass density [kg/m3]
Conditions	298.11 K	323.13 K	348.12 K	373.12 K	398.08 K	423.07 K	448.03 K	473.02 K
1100 kPa, m1 = 1.022	1130.15	1118.47	1104.6	1088.34	1069.78	1049.35	1026.97	–
1100 kPa, m1 = 2.024	1247.6	1234.1	1219.34	1202.92	1184.72	1165.03	1143.84	–
1100 kPa, m1 = 3.031	1354.92	1340.16	1324.81	1308.43	1290.36	1271.02	1250.51	–
10100 kPa, m1 = 1.022	1133.6	1121.92	1108.06	1092.02	1073.81	1053.57	1031.7	1007.66
10100 kPa, m1 = 2.024	1250.68	1237.28	1222.48	1206.28	1188.28	1168.83	1147.95	1125.38
10100 kPa, m1 = 3.031	1357.74	1343.03	1327.78	1311.58	1293.65	1274.46	1254.24	1232.68
20100 kPa, m1 = 1.022	1137.52	1125.75	1111.92	1095.98	1078.08	1058.3	1037.05	1013.5
20100 kPa, m1 = 2.024	1254.27	1240.69	1226.06	1209.96	1192.23	1173.04	1152.74	1130.5
20100 kPa, m1 = 3.031	1360.96	1346.27	1331.14	1315.04	1297.24	1278.29	1258.62	1237.28
30100 kPa, m1 = 1.022	1141.28	1129.44	1115.71	1100.03	1082.31	1062.95	1042	1019.02
30100 kPa, m1 = 2.024	1257.65	1244.1	1229.57	1213.53	1196.08	1177.32	1157.21	1135.33
30100 kPa, m1 = 3.031	1364.07	1349.35	1334.39	1318.4	1300.87	1282.22	1262.72	1241.64
40100 kPa, m1 = 1.022	1145.04	1133.12	1119.42	1103.81	1086.33	1067.24	1046.83	1024.58
40100 kPa, m1 = 2.024	1260.99	1247.56	1233.02	1217.2	1199.73	1181.23	1161.52	1140.28
40100 kPa, m1 = 3.031	1367.19	1352.55	1337.62	1321.75	1304.29	1285.9	1266.77	1246.19
50100 kPa, m1 = 1.022	1148.76	1136.68	1123.04	1107.65	1090.29	1071.7	1051.49	1029.72
50100 kPa, m1 = 2.024	1264.44	1250.9	1236.41	1220.6	1203.4	1185.23	1165.8	1144.86
50100 kPa, m1 = 3.031	1370.34	1355.63	1340.81	1324.88	1307.65	1289.64	1270.62	1250.44
60100 kPa, m1 = 1.022	1152.26	1140.25	1126.67	1111.38	1094.27	1075.85	1056.12	1034.76
60100 kPa, m1 = 2.024	1267.55	1254.09	1239.66	1224.07	1207.02	1189.05	1169.91	1149.32
60100 kPa, m1 = 3.031	1373.16	1358.71	1343.89	1328.14	1311.1	1293.25	1274.47	1254.53
68600 kPa, m1 = 1.022	1155.3	1143.18	1129.67	1114.46	1097.55	1079.3	1059.85	1038.86
68600 kPa, m1 = 2.024	1270.33	1256.76	1242.52	1226.94	1210.03	1192.19	1173.33	1153.07
68600 kPa, m1 = 3.031	1375.7	1361.18	1346.54	1330.91	1313.86	1296.08	1277.59	1257.93

O=S(=O)([O-])[O-].[Na+].[Na+] [sodium sulfate] + O
mass density [kg/m3]
Conditions	298.11 K	323.13 K	348.12 K	373.12 K	398.08 K	423.07 K	448.03 K	473.02 K
1100 kPa, m1 = 0.783	1089.58	1077.81	1063.59	1047	1028.03	1006.98	983.81	–
1100 kPa, m1 = 1.502	1164.61	1151.3	1136.41	1119.57	1100.73	1080.12	1057.71	–
10100 kPa, m1 = 0.783	1092.97	1081.15	1067.05	1050.62	1032.04	1011.36	988.74	963.68
10100 kPa, m1 = 1.502	1167.61	1154.41	1139.53	1122.86	1104.32	1084.06	1062.06	1038.23
20100 kPa, m1 = 0.783	1096.83	1084.87	1070.84	1054.57	1036.41	1016.13	994.07	969.72
20100 kPa, m1 = 1.502	1170.98	1157.75	1143.04	1126.48	1108.32	1088.31	1067	1043.59
30100 kPa, m1 = 0.783	1100.47	1088.46	1074.53	1058.52	1040.58	1020.77	998.93	975.48
30100 kPa, m1 = 1.502	1174.24	1161	1146.45	1130.05	1112.1	1092.62	1071.61	1048.78
40100 kPa, m1 = 0.783	1104.07	1092.02	1078.24	1062.4	1044.61	1025.11	1004.1	981.03
40100 kPa, m1 = 1.502	1177.46	1164.24	1149.78	1133.55	1115.8	1096.64	1076.11	1053.91
50100 kPa, m1 = 0.783	1107.68	1095.52	1081.79	1066.07	1048.55	1029.51	1008.75	986.37
50100 kPa, m1 = 1.502	1180.69	1167.41	1153.06	1136.94	1119.47	1100.57	1080.33	1058.64
60100 kPa, m1 = 0.783	1111.07	1098.98	1085.27	1069.75	1052.44	1033.66	1013.33	991.46
60100 kPa, m1 = 1.502	1183.64	1170.49	1156.2	1140.35	1123.02	1104.44	1084.59	1063.34
68600 kPa, m1 = 0.783	1113.99	1101.8	1088.2	1072.82	1055.65	1037.1	1017.15	995.65
68600 kPa, m1 = 1.502	1186.24	1173.08	1158.87	1143.15	1125.97	1107.66	1088.14	1067.18

O=C([O-])O.[Na+] [sodium bicarbonate] + O
mass density [kg/m3]
Conditions	298.11 K	323.13 K	348.12 K	373.12 K	398.08 K	423.07 K	448.03 K	473.02 K
1100 kPa, m1 = 0.507	1026.64	1016.27	1002.67	986.45	967.23	945.6	921.6	–
1100 kPa, m1 = 1	1053.32	1042.1	1028.17	1011.61	992.49	971.16	947.75	–
10100 kPa, m1 = 0.507	1030.34	1019.92	1006.34	990.43	971.5	950.33	926.98	900.8
10100 kPa, m1 = 1	1056.9	1045.63	1031.76	1015.42	996.59	975.62	952.76	927.94
20100 kPa, m1 = 0.507	1034.56	1023.96	1010.5	994.75	976.19	955.52	932.57	907.44
20100 kPa, m1 = 1	1060.94	1049.49	1035.74	1019.51	1001.1	980.58	958.38	934.21
30100 kPa, m1 = 0.507	1038.58	1027.87	1014.5	998.96	980.67	960.51	938.23	913.71
30100 kPa, m1 = 1	1064.78	1053.27	1039.62	1023.49	1005.36	985.4	963.67	940.3
40100 kPa, m1 = 0.507	1042.55	1031.74	1018.42	1003.05	985.06	965.22	943.62	919.81
40100 kPa, m1 = 1	1068.62	1057.11	1043.26	1027.56	1009.57	989.89	968.83	946.08
50100 kPa, m1 = 0.507	1046.47	1035.56	1022.29	1007.05	989.37	969.93	948.68	925.55
50100 kPa, m1 = 1	1072.42	1060.81	1047.06	1031.43	1013.71	994.52	973.77	951.65
60100 kPa, m1 = 0.507	1050.19	1039.28	1026.03	1010.74	993.56	974.48	953.67	931
60100 kPa, m1 = 1	1075.95	1064.4	1050.67	1035.29	1017.88	998.85	978.58	956.83
68600 kPa, m1 = 0.507	1053.46	1042.41	1029.22	1014.16	996.98	978.13	957.69	935.54
68600 kPa, m1 = 1	1079.05	1067.35	1053.84	1038.44	1021.02	1002.43	982.48	961.25
